Reference: patent US20040224876A1, “Combination therapy for the treatment of immunoinflammatory disorders” (priority 2003, published 2004)
“And” between values parts separate entries of the source, which are not always exact repeats. Equal entries are not always repeated. Where two headings read alike, the source gives them in different places.

Experiments:
[1] = tested on: TNFα secretion, human white blood cells; experiment: TNFα secretion, lipopolysaccharide stimulation, human white blood cells (ELISA)
Protocol: (§1) Various concentrations of each test compound were added at the time of stimulation. […] After the plate was washed with 0.1% Tween 20/PBS, an HRP-luminescent substrate was added to each well and light intensity measured using a LJL Analyst plate luminometer.
(§2) The percent inhibition (% I) for each well was calculated using the following formula:
(§3) The average untreated well value (avg. untreated wells) is the arithmetic mean of 40 wells from the same assay plate treated with vehicle alone.

[2] = tested on: IL-2 secretion, human white blood cells; experiment: IL-2 secretion by PMA/ionomycin-stimulated human white blood cells (ELISA)
Protocol: as §1, §2, §3

[3] = tested on: TNFα secretion, human white blood cells; details: cyclosporine 0 μM
Protocol: Drugs were added to the indicated concentration. […] The plate was then washed again with 0.1% Tween 20/PBS. An HRP-luminescent substrate was added to each well, and the light intensity of each well was measured using a plate luminometer.
as §2, §3

[4] = cited from earlier work
[5] = read-out: % Inhibition of IL-2 secretion
[6] = read-out: % Inhibition of TNFα secretion, cyclosporine A 0.00 μM, ethopropazine […]
[7] = read-out: % Inhibition of IL-2 secretion, cyclosporine A 0.00 μM, ethopropazine […]
[8] = read-out: % Inhibition of TNFα secretion, cyclosporine A 0 μM, chlorpromazine […]

**Q.** With `CN(C)C(=O)C(CCN1CCC(O)(c2ccc(Cl)cc2)CC1)(c1ccccc1)c1ccccc1` [Loperamide] as the compound, how does the inhibition at 35 µM ([1]; read-out: % Inhibition of TNFα secretion) read?
**A.** The inhibition at 35 µM was 87.3%.

**Q.** What about the inhibition at 17 µM [2, 5] of the same compound?
**A.** Its inhibition at 17 µM is 4.2%.

**Q.** And the inhibition at 35 µM [2, 5]?
**A.** Its inhibition at 35 µM is 42.4%.

**Q.** And the inhibition at […] [2, 5]?
**A.** Its inhibition at […] is -14.9% and -15.5% and -10.5% and -15.4% (2×) and -13.5%.

**Q.** Which “Reduction of TNFα secretion” value ([3]; loratadine 0.2 μM) does the source give for `CCOC(=O)N1CCC(=C2c3ccc(Cl)cc3CCc3cccnc32)CC1` [Loratadine] here?
**A.** Its value is 0.

**Q.** And the “Reduction of TNFα secretion” value ([3]; loratadine 13 μM)?
**A.** The value was 30.1.

**Q.** What about the “Reduction of TNFα secretion” value ([3]; loratadine 26 μM) of the same compound?
**A.** The value was 40.7.

**Q.** Which results are given for `CCN(CC)C(C)CN1c2ccccc2Sc2ccccc21` (centres unmarked) [Ethopropazine]?
**A.** inhibition at 17 µM [1, 6]: 24.3%; inhibition at 35 µM [1, 6]: 69.6%; inhibition at 17 µM [2, 7]: 21%; inhibition at 35 µM [2, 7]: 52.3%

**Q.** For `CN(C)CCCN1c2ccccc2Sc2ccc(Cl)cc21` [Chlorpromazine], which inhibition at 17 µM [1, 8] is on record?
**A.** The inhibition at 17 µM was 46.2%.

**Q.** And the inhibition at 35 µM [1, 8]?
**A.** Its inhibition at 35 µM is 45.5%.

**Q.** What about the inhibition at 0.6 µM ([2]; read-out: % Inhibition of IL-2 secretion, cyclosporine A 0 μM, chlorpromazine 0.6 μM) of the same compound?
**A.** Its inhibition at 0.6 µM is -13.3%.

**Q.** And the inhibition at 5 µM ([2]; read-out: % Inhibition of IL-2 secretion, cyclosporine A 0 μM, chlorpromazine 5.0 μM)?
**A.** Its inhibition at 5 µM is -13.7%.

**Q.** And the inhibition at 20 µM ([2]; read-out: % Inhibition of IL-2 secretion, cyclosporine A 0 μM, chlorpromazine 20.0 μM)?
**A.** Its inhibition at 20 µM is 24.7%.

**Q.** What about the inhibition at 40 µM ([2]; read-out: % Inhibition of IL-2 secretion, cyclosporine A 0 μM, chlorpromazine 40.0 μM) of the same compound?
**A.** Its inhibition at 40 µM is 80.7%.

**Q.** And the inhibition at 80 µM ([2]; read-out: % Inhibition of IL-2 secretion, cyclosporine A 0 μM, chlorpromazine 80.0 μM)?
**A.** The inhibition at 80 µM was 94.7%.

**Q.** What does the source list for `C=CC[C@@H]1/C=C(\C)C[C@H](C)C[C@H](OC)[C@H]2O[C@@](O)(C(=O)C(=O)N3CCCC[C@H]3C(=O)O[C@H](/C(C)=C/[C@@H]3CC[C@@H](O)[C@H](OC)C3)[C@H](C)[C@@H](O)CC1=O)[C@H](C)C[C@@H]2OC` [Tacrolimus]?
**A.** inhibition at 0.0004 µM ([2]; PBMC, read-out: % Inhibition IL-2 PBMC PI, tacrolimus 0.0004 μM, fluvoxamine μM: 0,0.16,0.31,0.62,1.2,2.5,5,10,20): 0.73%; inhibition at 0.0008 µM ([2]; PBMC, read-out: % Inhibition IL-2 PBMC PI, tacrolimus 0.0008 μM, fluvoxamine μM: 0,0.16,0.31,0.62,1.2,2.5,5,10,20): -4.4%; inhibition at 0.05 µM ([2]; PBMC, read-out: % Inhibition IL-2 PBMC PI, tacrolimus 0.05 μM, fluvoxamine μM: 0,0.16,0.31,0.62,1.2,2.5,5,10,20): 87%; inhibition at 0.05 µM ([2]; read-out: maximal inhibition of IL-2 production, tacrolimus 0.05 μM alone): 87%

**Q.** For `CO[C@H]1C[C@@H]2CC[C@@H](C)[C@@](O)(O2)C(=O)C(=O)N2CCCC[C@H]2C(=O)O[C@H]([C@H](C)C[C@@H]2CC[C@@H](O)[C@H](OC)C2)CC(=O)[C@H](C)/C=C(\C)[C@@H](O)[C@@H](OC)C(=O)[C@H](C)C[C@H](C)/C=C/C=C/C=C/1C` [Rapamycin], which “absorption after oral administration” value [4] is on record?
**A.** The value was “absorbed rapidly and completely”.
